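A five-concentration, 48-hour dose response in 96-well plates underlies each endpoint, interpolated linearly between surrounding concentrations. The concentration for 50% growth inhibition is given as GI50. TGI: concentration producing complete growth inhibition.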

Our source for the GI50 and TGI values is PubChem BioAssay (NCI).

Some test systems named below: OVCAR-5 ovarian; MDA-MB-435; RXF 393 renal; SF-539 CNS; A549 NSCLC; HCT-15 colon; HOP-62 NSCLC; UO-31 renal; DU-145 prostate; EKVX NSCLC.
What all share (assay): inhibition of tumour cell growth, NCI panel, 48 h

As for `COc1ccc(N2CCN(c3nc(-c4ccccn4)nc4sc5c(c34)CCCCCC5)CC2)cc1`, the GI50 in the experiment with OVCAR-5 ovarian was 51.7 µM; in the experiment with MDA-MB-435, 5.49 µM; in the experiment on RXF 393 renal, above 100 µM; in the experiment on SF-539 CNS it was 66.9 µM; with A549 NSCLC, 3.25 µM; with HCT-15 colon, 4.26 µM. The GI50 is 11.4 µM in the experiment on HOP-62 NSCLC, 3.28 µM with UO-31 renal and 27.9 µM in the experiment with DU-145 prostate. Besides, the TGI with OVCAR-5 ovarian, with MDA-MB-435, in the experiment on RXF 393 renal, in the experiment on SF-539 CNS, in the experiment with A549 NSCLC and with HCT-15 colon was above 100 µM throughout. Besides, the TGI with HOP-62 NSCLC, in the experiment on UO-31 renal and in the experiment with DU-145 prostate was above 100 µM throughout.

With `COc1ccc(CC2OC3(CCCCC3)CC3CCCCN32)cc1` (stereo unspecified), the TGI in the experiment with OVCAR-5 ovarian, in the experiment on MDA-MB-435, in the experiment on RXF 393 renal, in the experiment on A549 NSCLC, with HCT-15 colon and with EKVX NSCLC was above 100 µM in each case. Besides, the TGI in the experiment on HOP-62 NSCLC, in the experiment on UO-31 renal and in the experiment on DU-145 prostate was above 100 µM in each case.

Take `Fc1ccc(Nc2ccnc(N3CCN(c4ccnc5cc(Cl)ccc45)CC3)n2)cc1`: the GI50 was 3.82 µM in the experiment with OVCAR-5 ovarian; 1.93 µM in the experiment with MDA-MB-435; 3.39 µM in the experiment with RXF 393 renal; 2.95 µM in the experiment on SF-539 CNS; 2.66 µM with A549 NSCLC; 2.3 µM in the experiment on HCT-15 colon. The results for the GI50 with HOP-62 NSCLC, with UO-31 renal and in the experiment on DU-145 prostate were 3.83 µM, 0.845 µM and 3.96 µM, respectively. Moreover, the TGI with OVCAR-5 ovarian is above 100 µM; in the experiment on MDA-MB-435, 4.92 µM; with RXF 393 renal it was 72.3 µM; in the experiment with SF-539 CNS it was 10.3 µM; in the experiment on A549 NSCLC it was above 100 µM; in the experiment with HCT-15 colon it was 7.93 µM. Further, the TGI with HOP-62 NSCLC worked out at 65.4 µM; with UO-31 renal, 4.54 µM; with DU-145 prostate, 55.1 µM.

As for `COc1ccc(C2CC(=O)Nc3c2c(C)nn3-c2nc3ccccc3[nH]2)cc1OC` (stereo unspecified), the GI50 in the experiment with OVCAR-5 ovarian was 25.4 µM; in the experiment on MDA-MB-435 it was 3.25 µM; with RXF 393 renal it was 2.19 µM; in the experiment on SF-539 CNS, 2.85 µM; in the experiment on A549 NSCLC, 3.82 µM; in the experiment with HCT-15 colon it was 4.76 µM. For the same compound, the results for the GI50 with HOP-62 NSCLC, in the experiment with UO-31 renal and in the experiment on DU-145 prostate were 4.32 µM, 3.37 µM and 6.87 µM, respectively. In addition, the TGI in the experiment with OVCAR-5 ovarian is above 77.2 µM; in the experiment with MDA-MB-435, 18.3 µM; in the experiment on RXF 393 renal, 5.69 µM; with SF-539 CNS it was 9.48 µM; in the experiment on A549 NSCLC, 17.8 µM; with HCT-15 colon, above 58.9 µM. Further, the figures for the TGI in the experiment with HOP-62 NSCLC, in the experiment on UO-31 renal and in the experiment on DU-145 prostate were 24.4 µM, 14.6 µM and 27.1 µM, respectively.

As for `O=C(COc1ccc(Cl)cc1Cl)NNc1ccc([N+](=O)[O-])cc1`, the GI50 in the experiment on OVCAR-5 ovarian was above 100 µM; in the experiment with MDA-MB-435, above 100 µM; with RXF 393 renal, 17 µM; with SF-539 CNS it was 99.8 µM; in the experiment on A549 NSCLC, above 100 µM; in the experiment on HCT-15 colon, above 100 µM. In addition, the GI50 with HOP-62 NSCLC is 19.7 µM; with UO-31 renal, above 100 µM; in the experiment on DU-145 prostate, 53.3 µM. The TGI in the experiment with OVCAR-5 ovarian is above 100 µM; in the experiment with MDA-MB-435, above 100 µM; with RXF 393 renal, 39.9 µM; in the experiment on SF-539 CNS it was above 100 µM; in the experiment with A549 NSCLC, above 100 µM; with HCT-15 colon, above 100 µM. Besides, the TGI in the experiment with HOP-62 NSCLC is 38.6 µM; with UO-31 renal it was above 100 µM; with DU-145 prostate, above 100 µM.

Take `O=C(O)[C@@H](Cc1ccccc1)NS(=O)(=O)c1ccc(-c2ccccc2)cc1`: the GI50 with OVCAR-5 ovarian, in the experiment on MDA-MB-435, with SF-539 CNS, in the experiment on A549 NSCLC, in the experiment with HCT-15 colon and in the experiment on EKVX NSCLC was above 100 µM throughout. The GI50 in the experiment on HOP-62 NSCLC was above 100 µM; in the experiment on UO-31 renal, 24.9 µM; with DU-145 prostate it was above 100 µM. Also, the TGI in the experiment on OVCAR-5 ovarian, in the experiment on MDA-MB-435, in the experiment on SF-539 CNS, with A549 NSCLC, in the experiment on HCT-15 colon and in the experiment on EKVX NSCLC was above 100 µM each time. Besides, the TGI in the experiment with HOP-62 NSCLC was above 100 µM; with UO-31 renal, 59.4 µM; in the experiment on DU-145 prostate, above 100 µM.

For the compound `O=C(Nc1c(Cl)cccc1Cl)Oc1cccc2cccnc12`, the GI50 was 5.01 µM in the experiment on OVCAR-5 ovarian; 7.52 µM with MDA-MB-435; 16.7 µM in the experiment with RXF 393 renal; 4.57 µM in the experiment with SF-539 CNS; 4.47 µM in the experiment on A549 NSCLC; 0.992 µM in the experiment with HCT-15 colon. Besides, the figures for the GI50 in the experiment on HOP-62 NSCLC, in the experiment on UO-31 renal and with DU-145 prostate were 5.63 µM, 2.74 µM and 11.7 µM, respectively. Besides, the TGI was above 100 µM in the experiment with OVCAR-5 ovarian; above 100 µM with MDA-MB-435; above 100 µM with RXF 393 renal; 19 µM with SF-539 CNS; 40.2 µM in the experiment with A549 NSCLC; above 100 µM with HCT-15 colon. Further, the figures for the TGI in the experiment with HOP-62 NSCLC, in the experiment on UO-31 renal and with DU-145 prostate were 21 µM, 51.8 µM and above 100 µM, respectively.

In the case of `Nc1cc2c3ccccc3ccc2c2ccccc12`, the GI50 is above 100 µM in the experiment with OVCAR-5 ovarian; above 56.1 µM in the experiment on MDA-MB-435; above 100 µM with RXF 393 renal; above 51.2 µM in the experiment on SF-539 CNS; 23.9 µM in the experiment with A549 NSCLC; 3.92 µM in the experiment on HCT-15 colon. For the same compound, the GI50 was 30.6 µM with HOP-62 NSCLC, above 100 µM with UO-31 renal and above 87.4 µM in the experiment with DU-145 prostate. In addition, the TGI in the experiment with OVCAR-5 ovarian, in the experiment with MDA-MB-435, in the experiment on RXF 393 renal, in the experiment on SF-539 CNS, in the experiment with A549 NSCLC and in the experiment on HCT-15 colon was above 100 µM in each case. The TGI with HOP-62 NSCLC, with UO-31 renal and in the experiment with DU-145 prostate was above 100 µM in each case.

Regarding `CCCCCCCN(CCCCCCC)C(=N)c1ccc(OC)c2ccccc12`, the GI50 in the experiment with OVCAR-5 ovarian is 1.29 µM; in the experiment with MDA-MB-435, 1.48 µM; in the experiment with RXF 393 renal, 1.3 µM; with A549 NSCLC, 1.37 µM; in the experiment on EKVX NSCLC, 1.37 µM; in the experiment with HOP-62 NSCLC, 1.3 µM. Also, the GI50 in the experiment with UO-31 renal was 0.971 µM; in the experiment with DU-145 prostate, 1.38 µM. The TGI is 2.88 µM in the experiment on OVCAR-5 ovarian; 2.89 µM with MDA-MB-435; 3.01 µM in the experiment on RXF 393 renal; 2.82 µM in the experiment with A549 NSCLC; 2.85 µM with EKVX NSCLC; 2.79 µM in the experiment with HOP-62 NSCLC. Further, the results for the TGI in the experiment with UO-31 renal and with DU-145 prostate were 2.36 µM and 2.76 µM, respectively.
